{"source": "patent US10888548B2", "about": "“Anti-dandruff compositions comprising a spirofuranone lactam tetramic acid derivative” (priority 2015, dated 2021)", "tested_on": "Malassezia furfur (ATCC #38593)", "experiment": "M. furfur efficacy assay (anti-fungal activity, Alamar blue, 96 well plates)", "format": "cell-based", "procedure": "Malassezia furfur (ATCC #38593) was cultured on Media C agar for 7 d at 37° C. Yeast colonies were then harvested into 0.9% saline sterile diH2O and diluted to approximately 1.5×10^6 CFU/mL using a 0.5 MacFarland standard (Fisher #R20410) to create an assay inoculum. Assay inoculum was added to sterile Media C broth to a final concentration of 4.5×10^4 CFU/mL. Assays were carried out in 96 well plates with a final well volume of 100 μL.\nExtract fractions and pure compounds were tested in triplicate against each organism. Extract fractions and pure compounds were resuspended in sterile 20% DMSO.\nEach plate contained eight uninoculated positive controls (media+20% DMSO), eight untreated negative controls (Media+20% DMSO+organism), and one column containing a concentration range of a ketoconazole as a control antibiotic. The assay plate was incubated at 37° C. for 5d after which growth within the wells were visualized and photographed with a UVP Biospectrum 500 imaging system. Alamar blue was then added to each well at 10% of the culture volume (11 μL in 100 μL). Fluorescence was monitored using a BioTek Synergy HT plate reader at 530/25 excitation, 590/35 emission and 35 sensitivity at both time zero and 4 hrs after Alamar blue was added. After subtracting the time zero emission 590 nm measurement from the final reading the inferred percentage of microorganism survival relative to vehicle control wells were calculated.\nExperimentation was carried out to assess the anti-fungal effect of the produced fumagillin derivative and the pseurotin A each on their own, and in combination against M. furfur in a shampoo type formulation.\nInitially the M. furfur efficacy assay was tested with both J&J Baby Shampoo as well as Head & Shoulders to establish a baseline and assess the compatibility of the assay using a shampoo. Compositions of the fumagillin derivative with and without pseurotin A were created and suspended into the baby shampoo. The shampoo mixture was then diluted out into the assay in a similar manner to Head & Shoulders, so that various dilution points in the assay represented multiple sub-inhibitory concentrations of the fumagillin derivative and pseurotin A (concentration combinations are listed in Table 1).", "data": [{"smiles": "CC/C=C\\[C@H](O)[C@H](O)C1=C(C)C(=O)[C@]2(O1)C(=O)N[C@@](OC)(C(=O)c1ccccc1)[C@@H]2O", "note": "[Pseurotin A, pseurotin A]", "values": [{"measurement": "IC50", "setting": "active alone, M. furfur, incubated at 37° C. for 5d", "result": 55, "unit": "µg/mL"}, {"measurement": "MIC", "setting": "active alone, M. furfur, incubated at 37° C. for 5d, listed as Pseurotin A (sample 1)", "result": 128, "unit": "µg/mL"}, {"measurement": "MIC", "setting": "active alone, M. furfur, incubated at 37° C. for 5d, listed as Pseurotin A (sample 2)", "result": 75, "unit": "µg/mL"}, {"measurement": "anti-Malassezia activity of isolated pure fractions", "setting": "fraction 6 and fraction 10 of Peyronellaea sp. RKDO347 extract", "result": "demonstrated anti-Malassezia activity"}]}]}
